Data as given in US4264774A, “2-Thiophenesulfonyl bromides” (The Dow Chemical Company, priority 1976, dated 1981).
Values after ≈ are worked out from the molar mass of the structure shown.

What was measured:
Assay type in all cases: cell-based
T. Sp. Madison P42 = test: in vitro agar Petri dish dilution test, Tr 42; conditions: 100% inhibition
Excerpt: (§1) The compounds of this invention have antimicrobial utility. In conventional in vitro agar Petri dish dilution tests, the following compounds and some corresponding art compounds gave 100% inhibition of the following organisms at the indicated concentrations in parts per million.
Tr 42 = T. Sp. Madison P42

C. IPS = test: in vitro agar Petri dish dilution test, CI; conditions: 100% inhibition
Excerpt: as §1

C. pelliculosa [1] = test: in vitro agar Petri dish dilution test, Cp; conditions: Hansenula anomala, 100% inhibition
Excerpt: as §1

S. typhosa = test: in vitro agar Petri dish dilution test, St; conditions: for MIC: 100% inhibition
Excerpt: as §1

A. aerogenes = test: in vitro agar Petri dish dilution test, Aa; conditions: Klebsiella aerogenes, 100% inhibition
Excerpt: as §1

T. mentagrophytes = test: in vitro agar Petri dish dilution test, Tm; conditions: Trichophyton mentagrophytes, 100% inhibition
Excerpt: as §1
Tm = T. mentagrophytes -

A. niger = test: in vitro agar Petri dish dilution test, An; conditions: Aspergillus niger, 100% inhibition
Excerpt: as §1

[2] = system: Pseudomonas Sp. Strain 10; test: in vitro agar Petri dish dilution test, Ps 10; conditions: 100% inhibition
Excerpt: as §1
Ps 10 = Pseudomonas Sp. Strain 10

B. subtilis [3] = test: in vitro agar Petri dish dilution test, Bs; conditions: Bacillus subtilis, 100% inhibition
Excerpt: as §1

S. aureus [4] = test: in vitro agar Petri dish dilution test, Sa; conditions: Staphylococcus aureus, 100% inhibition
Excerpt: as §1

C. albicans = test: in vitro agar Petri dish dilution test, Ca; conditions: Candida albicans, 100% inhibition
Excerpt: as §1

P. pullulans = test: in vitro agar Petri dish dilution test, Pp; conditions: 100% inhibition
Excerpt: as §1

E. coli = test: in vitro agar Petri dish dilution test, Ec; conditions: Escherichia coli, 100% inhibition
Excerpt: as §1

R. nigricans = test: in vitro agar Petri dish dilution test, Rn; conditions: Rhizopus stolonifer, 100% inhibition
Excerpt: as §1

M. phlei = test: in vitro agar Petri dish dilution test, Mp; conditions: Mycolicibacterium phlei, 100% inhibition
Excerpt: as §1

B. subtilis [5] = test: in vitro agar Petri dish dilution test, Bs; conditions: Bacillus subtilis
C. pelliculosa [6] = test: in vitro agar Petri dish dilution test, Cp; conditions: Hansenula anomala
S. aureus [7] = test: in vitro agar Petri dish dilution test, Sa; conditions: Staphylococcus aureus

Cc1ccc(S(=O)(=O)Br)s1 [5-CH3]
MIC (T. Sp. Madison P42): > 100 µg/mL
MIC (C. IPS): > 100 µg/mL
MIC (C. pelliculosa [1]): > 100 µg/mL
MIC (S. typhosa): 50 µg/mL (≈ 207 µM)
MIC (A. aerogenes): > 100 µg/mL
MIC (T. mentagrophytes): > 100 µg/mL
MIC (A. niger): > 100 µg/mL
MIC [2]: 50 µg/mL (≈ 207 µM)
MIC (B. subtilis [3]): > 100 µg/mL
MIC (S. aureus [4]): 100 µg/mL (≈ 415 µM)
MIC (C. albicans): > 100 µg/mL
MIC (P. pullulans): > 100 µg/mL

O=S(=O)(Br)c1sc(Br)c(Br)c1Br [3,4,5-Br3]
MIC (T. Sp. Madison P42): 50 µg/mL (≈ 108 µM)
MIC (C. pelliculosa [1]): 50 µg/mL (≈ 108 µM)
MIC (A. aerogenes): > 100 µg/mL
MIC (T. mentagrophytes): 50 µg/mL (≈ 108 µM)
MIC (A. niger): 50 µg/mL (≈ 108 µM)
MIC [2]: 50 µg/mL (≈ 108 µM)
MIC (B. subtilis [3]): 50 µg/mL (≈ 108 µM)
MIC (S. aureus [4]): 50 µg/mL (≈ 108 µM)
MIC (C. albicans): 100 µg/mL (≈ 216 µM)
MIC (P. pullulans): 50 µg/mL (≈ 108 µM)

O=S(=O)(Br)c1ccc(Br)s1 [5-Br, 5-Bromo-2-thiophenesulfonyl Bromide]
MIC (T. Sp. Madison P42): 100 µg/mL
MIC (C. pelliculosa [1]): 100 µg/mL
MIC (E. coli): 500 µg/mL
MIC (R. nigricans): 100 µg/mL
MIC (A. aerogenes): 500 µg/mL
MIC (T. mentagrophytes): 100 µg/mL
MIC (M. phlei): 500 µg/mL
MIC (A. niger): 100 µg/mL
MIC [2]: 100 µg/mL
MIC (B. subtilis [3]): 100 µg/mL
MIC (S. aureus [4]): 500 µg/mL
MIC (C. albicans): 100 µg/mL
MIC (P. pullulans): 100 µg/mL

CCc1ccc(S(=O)(=O)Cl)s1 [5-C2 H5]
inhibition at 500 ppm (S. typhosa): 50%

O=S(=O)(Cl)c1sc(Br)cc1Br [3,5-Br2, reference compound]
MIC (T. Sp. Madison P42): > 100 µg/mL
MIC (C. IPS): > 100 µg/mL
MIC (C. pelliculosa [1]): > 100 µg/mL
MIC (S. typhosa): > 100 µg/mL
MIC (A. aerogenes): > 100 µg/mL
MIC (T. mentagrophytes): > 100 µg/mL
MIC (A. niger): > 100 µg/mL
MIC [2]: > 100 µg/mL
MIC (B. subtilis [3]): > 100 µg/mL
MIC (S. aureus [4]): > 100 µg/mL
MIC (C. albicans): > 100 µg/mL
MIC (P. pullulans): > 100 µg/mL

O=S(=O)(Br)c1sc(Br)cc1Br [3,5-Br2]
MIC (T. Sp. Madison P42): 100 µg/mL (≈ 260 µM)
MIC (C. pelliculosa [1]): 50 µg/mL (≈ 130 µM)
MIC (S. typhosa): 50 µg/mL (≈ 130 µM)
MIC (A. aerogenes): 50 µg/mL (≈ 130 µM)
MIC (T. mentagrophytes): 50 µg/mL (≈ 130 µM)
MIC [2]: 50 µg/mL (≈ 130 µM)
MIC (B. subtilis [3]): 50 µg/mL (≈ 130 µM)
MIC (S. aureus [4]): 50 µg/mL (≈ 130 µM)
MIC (C. albicans): 100 µg/mL (≈ 260 µM)
MIC (P. pullulans): 100 µg/mL (≈ 260 µM)

CCCCc1ccc(S(=O)(=O)Cl)s1 [5-butyl, reference compound]
inhibition at 500 ppm (B. subtilis [5]): 50%
MIC (E. coli): > 500 µg/mL
MIC (S. typhosa): > 500 µg/mL
MIC (A. aerogenes): > 500 µg/mL
MIC (T. mentagrophytes): 500 µg/mL (≈ 2090 µM)
inhibition at 500 ppm (C. pelliculosa [6]): 50%
MIC (A. niger): > 500 µg/mL
inhibition at 500 ppm (S. aureus [7]): 50%
MIC (C. albicans): > 500 µg/mL
MIC (P. pullulans): > 500 µg/mL

O=S(=O)(Br)c1cccs1 [H, 2-Thiophenesulfonyl Bromide]
MIC (T. Sp. Madison P42): 100 µg/mL
MIC (C. pelliculosa [1]): 100 µg/mL
MIC (E. coli): 100 µg/mL
MIC (R. nigricans): 100 µg/mL
MIC (A. aerogenes): 100 µg/mL
MIC (T. mentagrophytes): 100 µg/mL
MIC (M. phlei): 100 µg/mL
MIC (A. niger): 100 µg/mL
MIC [2]: 100 µg/mL
MIC (B. subtilis [3]): 100 µg/mL
MIC (S. aureus [4]): 500 µg/mL
MIC (C. albicans): 100 µg/mL
MIC (P. pullulans): 100 µg/mL

CCc1ccc(S(=O)(=O)Br)s1 [5-C2 H5]
MIC (T. Sp. Madison P42): 100 µg/mL (≈ 392 µM)
MIC (C. pelliculosa [1]): 100 µg/mL (≈ 392 µM)
MIC (E. coli): 500 µg/mL (≈ 1960 µM)
MIC (R. nigricans): 100 µg/mL (≈ 392 µM)
MIC (A. aerogenes): 500 µg/mL (≈ 1960 µM)
MIC (T. mentagrophytes): 100 µg/mL (≈ 392 µM)
MIC (A. niger): 100 µg/mL (≈ 392 µM)
MIC [2]: 100 µg/mL (≈ 392 µM)
MIC (B. subtilis [3]): 100 µg/mL (≈ 392 µM)
MIC (S. aureus [4]): 500 µg/mL (≈ 1960 µM)
MIC (C. albicans): 500 µg/mL (≈ 1960 µM)
MIC (P. pullulans): 100 µg/mL (≈ 392 µM)

CCCCc1ccc(S(=O)(=O)Br)s1 [5-butyl]
MIC (T. Sp. Madison P42): 100 µg/mL (≈ 353 µM)
MIC (C. pelliculosa [1]): 100 µg/mL (≈ 353 µM)
MIC (E. coli): 500 µg/mL (≈ 1770 µM)
MIC (R. nigricans): 100 µg/mL (≈ 353 µM)
MIC (A. aerogenes): 500 µg/mL (≈ 1770 µM)
MIC (T. mentagrophytes): 100 µg/mL (≈ 353 µM)
MIC (A. niger): 100 µg/mL (≈ 353 µM)
MIC [2]: 500 µg/mL (≈ 1770 µM)
MIC (B. subtilis [3]): 100 µg/mL (≈ 353 µM)
MIC (S. aureus [4]): 500 µg/mL (≈ 1770 µM)
MIC (C. albicans): 500 µg/mL (≈ 1770 µM)
MIC (P. pullulans): 100 µg/mL (≈ 353 µM)

Cc1ccc(S(=O)(=O)Cl)s1 [5-CH3]
inhibition at 500 ppm (S. typhosa): 50%

O=S(=O)(Br)c1cc(Br)c(Br)s1 [4,5-Br2]
MIC (T. Sp. Madison P42): 100 µg/mL (≈ 260 µM)
MIC (C. pelliculosa [1]): 100 µg/mL (≈ 260 µM)
MIC (S. typhosa): 50 µg/mL (≈ 130 µM)
MIC (A. aerogenes): 100 µg/mL (≈ 260 µM)
MIC (T. mentagrophytes): 100 µg/mL (≈ 260 µM)
MIC (A. niger): 100 µg/mL (≈ 260 µM)
MIC [2]: 50 µg/mL (≈ 130 µM)
MIC (B. subtilis [3]): 50 µg/mL (≈ 130 µM)
MIC (S. aureus [4]): 50 µg/mL (≈ 130 µM)
MIC (C. albicans): 100 µg/mL (≈ 260 µM)
MIC (P. pullulans): 100 µg/mL (≈ 260 µM)

O=S(=O)(Br)c1ccc(Cl)s1 [5-Cl, 5-Chloro-2-thiophenesulfonyl Bromide]
MIC (T. Sp. Madison P42): 100 µg/mL
MIC (C. pelliculosa [1]): 100 µg/mL
MIC (E. coli): 100 µg/mL
MIC (R. nigricans): 100 µg/mL
MIC (A. aerogenes): 500 µg/mL
MIC (T. mentagrophytes): 100 µg/mL
MIC (M. phlei): 500 µg/mL
MIC (A. niger): 100 µg/mL
MIC [2]: 500 µg/mL
MIC (B. subtilis [3]): 500 µg/mL
MIC (S. aureus [4]): 500 µg/mL
MIC (C. albicans): 100 µg/mL
MIC (P. pullulans): 100 µg/mL

O=S(=O)(Cl)c1cc(Br)c(Br)s1 [4,5-Br2, reference compound]
MIC (C. pelliculosa [1]): 100 µg/mL (≈ 294 µM)
MIC (A. aerogenes): > 100 µg/mL
MIC (T. mentagrophytes): 100 µg/mL (≈ 294 µM)
MIC (A. niger): > 100 µg/mL
MIC (B. subtilis [3]): > 100 µg/mL
MIC (S. aureus [4]): > 100 µg/mL
MIC (C. albicans): > 100 µg/mL

O=S(=O)(Cl)c1sc(Br)c(Br)c1Br [3,4,5-Br3, reference compound]
MIC (C. pelliculosa [1]): > 100 µg/mL
MIC (A. aerogenes): > 100 µg/mL
MIC (T. mentagrophytes): > 100 µg/mL
MIC (A. niger): > 100 µg/mL
MIC (B. subtilis [3]): > 100 µg/mL
MIC (S. aureus [4]): > 100 µg/mL
MIC (C. albicans): > 100 µg/mL

O=S(=O)(Cl)c1cccs1 [H, 2-thiophenesulfonyl chloride, reference compound]
MIC (T. Sp. Madison P42): > 500 µg/mL
MIC (C. IPS): > 500 µg/mL
MIC (C. pelliculosa [1]): > 500 µg/mL
MIC (E. coli): > 500 µg/mL
MIC (S. typhosa): > 500 µg/mL
MIC (R. nigricans): > 500 µg/mL
MIC (A. aerogenes): > 500 µg/mL
MIC (T. mentagrophytes): > 500 µg/mL
MIC (M. phlei): 500 µg/mL
MIC (A. niger): > 500 µg/mL
MIC [2]: > 500 µg/mL
MIC (B. subtilis [3]): > 500 µg/mL
MIC (S. aureus [4]): > 500 µg/mL
MIC (C. albicans): > 500 µg/mL
MIC (P. pullulans): > 500 µg/mL
